{
  "source": "patent US20040006042A1",
  "about": "“Diaminopyrimidines and combination therapies effective for treatment of P-glycoprotein positive cancers” (priority 1998, published 2004)",
  "key": {"dihydrofolate reductase": {"molecular_target": "T1, dihydrofolate reductase (Homo sapiens, UniProt P00374)", "T1 sequence (P00374 1-187)": "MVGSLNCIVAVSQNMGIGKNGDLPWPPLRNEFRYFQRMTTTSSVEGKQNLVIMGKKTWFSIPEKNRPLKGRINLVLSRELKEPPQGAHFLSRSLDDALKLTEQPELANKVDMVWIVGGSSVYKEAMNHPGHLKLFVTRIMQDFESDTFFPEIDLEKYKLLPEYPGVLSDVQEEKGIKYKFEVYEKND", "assay": "Inhibition of dihydrofolate reductase (Table 1)", "format": "biochemical"}, "P388S cells": {"system": "P388S cells", "assay": "In vitro growth inhibition of P388S cells", "format": "cell-based", "details": "Mus musculus, P388/S; in vitro; read-out: P388S IC50"}, "P388/ADR cells [1]": {"system": "P388/ADR cells", "assay": "In vitro growth inhibition of P388/ADR cells", "format": "cell-based, murine", "details": "for IC50: Mus musculus, P388/ADR, in vitro; for R/S: ratio resistant (P388/ADR) to sensitive (P388S) IC50"}, "P388 leukemia": {"system": "P388 leukemia", "assay": "In vivo P388 leukemia life span study", "set-up": "species or system CD2F1 mice", "details": "maximum tolerated dose, i.p. Days 3-11 (Adriamycin Days 3, 7, 11); >130 = antitumor effect"}, "P388/ADR leukemia": {"system": "P388/ADR leukemia", "assay": "In vivo P388/ADR leukemia life span study", "set-up": "species or system CD2F1 mice", "details": "for P388/ADR T/C: maximum tolerated dose, i.p. Days 3-11 (Adriamycin Days 3, 7, 11), >130 = antitumor effect"}, "[2]": {"system": "Colon 26/clone 10 (C26/10)", "assay": "Colon 26/clone 10 i.p. life span study", "format": "in vivo, CD2F1 mice", "details": "i.p. implant, treated i.p. Days 3-7 and 10-14 (Adriamycin Days 5, 9, 13); >130 = antitumor effect", "procedure": "To test compounds of the present invention in vivo, the following methodology was used. P388 leukemia and its Adriamycin resistant subline, P388/ADR were passed weekly in DBA/2 mice as i.p. implants of 10^5 and 10^6 cells, respectively. Animals bearing P388/ADR passage were treated with 7 mg/kg Adriamycin on Day 3 post-implant as a resistance selection pressure. C26/clone 10 was passed every 2 weeks into Balb/c mice as tumor fragments (approximately 30 mg) which were obtained from tumors 1 g in mass.\nColon 26/clone 10 (C26/10) life span studies were conducted in CD2F1 mice. C26/C10 cells were implanted i.p. on Day 0. Animals were treated i.p. with test agents in the vehicles described above on Days 3-7 and 10-14. Adriamycin was dosed i.p. in saline on Days 5, 9, and 13. […] Percent T/C values in excess of 130 are indicative of an antitumor effect in this model."}, "P388/ADR cells [3]": {"system": "P388/ADR cells", "assay": "Combination of antifolates with FU and LV on P388/ADR proliferation", "format": "cell-based, murine", "details": "P388/ADR; for Antifol + FU / Antifol + LV / Antifol + LV + FU: antifolate 1 nM 24 hours; for Antifol + FU / Antifol + LV + FU: 5 μM FU final 4 hours; for Antifol + LV / Antifol + LV + FU: LV 10 μM final 4.5 hours; for Antifol: antifolate 1 nM, 24 hours"}, "[4]": {"system": "HT29 human colon adenocarcinoma cells"}, "[5]": {"system": "HT29 human colon adenocarcinoma cells", "assay": "Combination of antifolates with FU and LV on HT-29 proliferation (sulphorhodamine B)"}, "[6]": {"system": "P388 murine leukemia cells", "assay": "Combination of antifolates with FU and LV on P388 proliferation", "format": "cell-based"}, "[7]": {"system": "C26 murine colon tumor cells", "assay": "Combination of antifolates with FU and LV on C26 proliferation", "format": "cell-based", "details": "C26; 5 μM FU alone, 4 hours"}},
  "note": "Several values for one entry are separate records, joined by “and”; a condition that tells them apart may be missing. Equal values may be shown once. Read-outs that look alike come from different tables or passages of the source.",
  "data": [
    {"compound": "Cc1nc(N)nc(N)c1N1CCN(c2ccc(CNC(CCC(=O)O)C(=O)O)cc2)CC1", "note": "(centres unmarked) [A]", "values": [
      {"measurement": "Ki", "setting": "dihydrofolate reductase; read-out: Ki", "result": 0.053, "unit": "nM"}
    ]},
    {"compound": "COc1cccc2c1C(=O)c1c(O)c3c(c(O)c1C2=O)C[C@@](O)(C(=O)CO)C[C@@H]3O[C@H]1C[C@H](N)[C@H](O)[C@H](C)O1", "note": "[Adriamycin, reference compound]", "values": [
      {"measurement": "IC50", "setting": "P388S cells", "result": 0.075, "unit": "µg/mL"},
      {"measurement": "IC50", "setting": "P388/ADR cells [1]", "result": 3.9, "unit": "µg/mL"},
      {"measurement": "R/S", "setting": "P388/ADR cells [1]", "result": 52},
      {"measurement": "P388S T/C", "setting": "P388 leukemia", "result": 250, "unit": "%"},
      {"measurement": "activity against P388/ADR tumors in vivo", "setting": "P388/ADR leukemia; in words", "result": "inactive"},
      {"measurement": "P388/ADR T/C", "setting": "P388/ADR leukemia", "result": 108, "unit": "%"},
      {"measurement": "C26 ip T/C", "setting": "[2]", "result": 180, "unit": "%"}
    ]},
    {"compound": "Cc1nc(N)nc(N)c1N1CCN(c2ccc(C(=O)O)cc2)CC1", "note": "[B, 4-[4-(2,4-Diamino-6-methyl-pyrimidin-5-yl)-piperzain-1-yl]-benzoic acid]", "values": [
      {"measurement": "Ki", "setting": "dihydrofolate reductase", "result": 0.201, "unit": "nM"},
      {"measurement": "Antifol + FU", "setting": "P388/ADR cells [3]", "result": "30% of control"},
      {"measurement": "Antifol + LV", "setting": "P388/ADR cells [3]", "result": "70% of control"},
      {"measurement": "Antifol + LV + FU", "setting": "P388/ADR cells [3]", "result": "28% of control"},
      {"measurement": "Antifol", "setting": "P388/ADR cells [3]", "result": "62% of control"}
    ]},
    {"compound": "CCOC(=O)CCC(NC(=O)c1ccc(N2CCN(c3c(N)nc(N)nc3CC)CC2)cc1)C(=O)OCC", "note": "(centres unmarked) [C, 2-{4-[4-(2,4-Diamino-6-ethyl-pyrimidin-5-yl)-pierazin-1-yl]-benzoylamino}pentanedioic acid diethyl ester]", "values": [
      {"measurement": "Ki", "setting": "dihydrofolate reductase", "result": 0.109, "unit": "nM"},
      {"measurement": "Antifol + FU", "setting": "P388/ADR cells [3]", "result": "40% of control"},
      {"measurement": "Antifol + LV", "setting": "P388/ADR cells [3]", "result": "80% of control"},
      {"measurement": "Antifol + LV + FU", "setting": "P388/ADR cells [3]", "result": "30% of control"},
      {"measurement": "Antifol", "setting": "P388/ADR cells [3]", "result": "88% of control"}
    ]},
    {"compound": "Cc1nc(N)nc(N)c1-c1ncncc1-c1ccc(C(=O)O)cc1", "note": "[Compound F, 4-[4-(2,4-Diamino-6-methyl-pyrimidin-5-yl)-pyrimidin-5-yl]-benzoic acid]", "values": [
      {"measurement": "IC50", "setting": "P388S cells", "result": 0.033, "unit": "µg/mL"},
      {"measurement": "IC50", "setting": "P388/ADR cells [1]", "result": 0.04, "unit": "µg/mL"},
      {"measurement": "R/S", "setting": "P388/ADR cells [1]", "result": 1.1},
      {"measurement": "P388S T/C", "setting": "P388 leukemia", "result": 260, "unit": "%"}
    ]},
    {"compound": "Cc1nc(N)nc(N)c1N1CCN(c2ccc(S(C)(=O)=O)cc2)CC1", "note": "[E]", "values": [
      {"measurement": "Ki", "setting": "dihydrofolate reductase", "result": 0.138, "unit": "nM"}
    ]},
    {"compound": "Cc1nc(N)nc(N)c1N1CCN(c2ccc(C(=O)NN)cc2)CC1", "note": "[Example 11, 4-[4-(2,4-Diamino-6-methyl-5-pyrinidinyl)-1-piperazinyl]benzoic acid, hydrazide]", "values": [
      {"measurement": "IC50", "setting": "P388S cells", "result": 0.0105, "unit": "µg/mL"},
      {"measurement": "IC50", "setting": "P388/ADR cells [1]", "result": 0.0161, "unit": "µg/mL"},
      {"measurement": "R/S", "setting": "P388/ADR cells [1]", "result": 1.5},
      {"measurement": "P388S T/C", "setting": "P388 leukemia", "result": 195, "unit": "%"},
      {"measurement": "P388/ADR T/C", "setting": "P388/ADR leukemia", "result": 161, "unit": "%"},
      {"measurement": "C26 ip T/C", "setting": "[2]", "result": 164, "unit": "%"},
      {"measurement": "Antifol + FU", "setting": "P388/ADR cells [3]", "result": "48% of control"},
      {"measurement": "Antifol + LV", "setting": "P388/ADR cells [3]", "result": "80% of control"},
      {"measurement": "Antifol + LV + FU", "setting": "P388/ADR cells [3]", "result": "16% of control"},
      {"measurement": "Antifol", "setting": "P388/ADR cells [3]", "result": "77% of control"},
      {"measurement": "Antifol + FU", "setting": "[4]", "result": "42% of control"},
      {"measurement": "Antifol + LV + FU", "setting": "[4]", "result": "33% of control"},
      {"measurement": "Antifol + LV", "setting": "[5]; antifolate 62.5 nM 24 hours, LV 10 μM final 4.5 hours", "result": "80% of control"},
      {"measurement": "Antifol", "setting": "[5]; antifolate 62.5 nM, 24 hours", "result": "87% of control"}
    ]},
    {"compound": "Cc1nc(N)nc(N)c1N1CCN(c2ccc(C(=O)N(C)N)cc2)CC1", "note": "[Example 13, 4-[4-(2,4-Diamino-6-methyl-5-pryimidinyl)-1-piperazinyl]benzoic acid, 1-methylhydrazide]", "values": [
      {"measurement": "Antifol + FU", "setting": "[6]; antifolate 1.0 nM 24 hours, 5 μM FU final 4 hours", "result": "10% of control"},
      {"measurement": "Antifol + LV", "setting": "[6]; antifolate 1.0 nM 24 hours, LV 10 μM final 4.5 hours", "result": "85% of control"},
      {"measurement": "Antifol + LV + FU", "setting": "[6]; antifolate 1.0 nM 24 hours, LV 10 μM final 4.5 hours, 5 μM FU final 4 hours", "result": "7% of control"},
      {"measurement": "Antifol", "setting": "[6]; antifolate 1.0 nM, 24 hours", "result": "85% of control"}
    ]},
    {"compound": "O=c1[nH]cc(F)c(=O)[nH]1", "note": "[FU, 5-fluorouracil, reference compound]", "values": [
      {"measurement": "FU", "setting": "[6]; 5 μM FU alone, 4 hours", "result": "90% of control and 90* percent of control"},
      {"measurement": "FU", "setting": "P388/ADR cells [3]; 5 μM FU alone, 4 hours", "result": "90% of control and 90* percent of control"},
      {"measurement": "FU", "setting": "[7]", "result": "72% of Control"}
    ]}
  ]
}
